Data taken from paper PMC7724564 (Science Bulletin, 2020).

Biological target: human angiotensin-converting enzyme 2 (ACE2) (Homo sapiens, UniProt Q9BYF1)
Experiment: biolayer interferometry
Type: binding

Chain of human angiotensin-converting enzyme 2 (ACE2) (Q9BYF1 18-740): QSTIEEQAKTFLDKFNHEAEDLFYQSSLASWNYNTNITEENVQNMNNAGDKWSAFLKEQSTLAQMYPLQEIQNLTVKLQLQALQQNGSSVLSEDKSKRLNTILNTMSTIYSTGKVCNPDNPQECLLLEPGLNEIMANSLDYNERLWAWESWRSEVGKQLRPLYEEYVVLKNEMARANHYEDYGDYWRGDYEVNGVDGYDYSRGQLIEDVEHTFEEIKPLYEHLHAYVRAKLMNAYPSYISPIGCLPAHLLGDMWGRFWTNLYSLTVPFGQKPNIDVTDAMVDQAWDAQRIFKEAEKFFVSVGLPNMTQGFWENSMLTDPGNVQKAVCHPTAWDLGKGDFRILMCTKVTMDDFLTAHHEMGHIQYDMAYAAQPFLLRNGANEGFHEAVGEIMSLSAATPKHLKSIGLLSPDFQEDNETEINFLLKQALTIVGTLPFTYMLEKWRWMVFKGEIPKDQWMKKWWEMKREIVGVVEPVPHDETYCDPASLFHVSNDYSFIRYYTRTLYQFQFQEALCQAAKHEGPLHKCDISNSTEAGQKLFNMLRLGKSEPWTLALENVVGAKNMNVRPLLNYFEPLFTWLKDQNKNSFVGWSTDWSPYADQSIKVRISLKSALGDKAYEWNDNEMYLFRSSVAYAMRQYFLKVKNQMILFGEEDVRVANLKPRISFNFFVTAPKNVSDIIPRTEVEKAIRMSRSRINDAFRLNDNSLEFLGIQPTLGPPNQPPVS

With C=CC1=C(C)c2cc3[nH]c(cc4nc(cc5[nH]c(cc1n2)c(C)c5CCC(=O)O)C(CCC(=O)O)=C4C)c(C)c3C=C [protoporphyrin IX] the Kd was 39 µM.
